Source: patent publication US11414377B2, “Modulator of metabotropic and ionotropic transmembrane receptors and use thereof” (IBD THERAPEUTICS LLC, priority 2018, dated 2022)

Assays:
male balb/c mice = assay: Motility of the gastrointestinal tract in vivo (activated carbon transit); conditions: intact 73.8 ± 3.7
Protocol: The effect of Compound I on the motility of the GIT was studied by a standard procedure (Li Y. Y., Li Y. N., Ni J. B., Chen C. J., Lv S., Chai S. Y., Wu R. H., Yüce B., Storr M. Involvement of cannabinoid-1 and cannabinoid-2 receptors in septic ileus//Neurogastroenterol Motil. 2010. V. 22. P. 350-388). The study was carried out on male balb/c mice, the individual weight of which deviates from the mean value within the sex of no more than ±20%. The animals were given the intragastric administration of a solution of activated carbon (50 mg/ml, in 10 ml/kg) and the rate (in minutes) of the movement of the activated carbon on the intestine of animals was evaluated. Compounds I was administered once intragastrically 1 hour prior to administration of activated carbon. As the comparative preparations, hyoscin butyl bromide (Buscopan) at a dose of 3 mg/kg, trimebutine (Trimedat) at a dose of 33 mg/kg, mebeverine (Duspatalin) at a dose of 30 mg/kg were used. The obtained data were checked using the Grubb's test for the presence of the largest or smallest abnormal observation (ejection) in the sample. Values determined “to be eliminated” in this test were not used for further assay. For all data, descriptive statistics was used: a mean value (M) and standard error of the mean value (m) were counted up. The normality of distribution of the values obtained in the course of the experiment was checked with the aid of the Kolmogorov-Smirnov test. In the case of normal distribution, Student's t-test (t-test) was used to evaluate the inter-group distinctions. In the case of the distribution that is other than the normal one for the comparison of several groups, the Kruskall-Wallis test (with Dann's post hoc test) was used. Distinctions were determined at 5% at a level of confidence.

female balb/c mice = assay: Oxazolone-induced inflammatory bowel disease model; assay type: in vivo; conditions: 10 mg/kg, 1, 25 and 49 hours after oxazolone, scored at 72 hours, control 2.00 ± 0.21
Protocol: The study of the activity of Compound I on the oxazolone-induced inflammatory bowel disease model (ulcerative Colitis and Crohn's disease model) was carried out by means of a standard procedure (Heller F., Fuss I. J., Nieuwenhuis E. E., Blumberg R. S., Strober W. Oxazolone colitis, a Th2 colitis model resembling ulcerative colitis, is mediated by IL-13-producing NK-T cells//Immunity. 2002. P. 629-638).
The study was carried out on female balb/c mice. A 3.5 F catheter was introduced into the large intestine to a depth of 3-4 cm. Then, 150 μl of 1% oxazolone solution in 50% ethanol was slowly introduced into the colon lumen, the catheter was slowly removed and the mouse was kept in a vertical position (upside down) for 60 seconds to avoid the introduced solution flowing-out. Experimental animals were returned to the cages and the animal was kept in the warm. Compound I was administered intragastrically, three times: 1 hour, 25 hours and 49 hours after the rectal administration of oxazolone. 72 hours later after the rectal administration of oxazolone, the macroscopic assessment of intestinal wall damage is carried out with the help of score scale: 0 points—no lesions, 1 point—hyperemia, no ulcers, 2 points—hyperemia and thickening of the intestinal wall, no ulcers, 3 points—one ulcer without thickening of the intestine wall, 4 points—2 or more of the site of ulceration or inflammation, 5 points—2 or more severe sites of ulcerations and inflammation, or one site of ulceration/inflammation affecting >1 cm in length of the intestine, 6-10 points—the lesion affects >2 cm in length of the intestine, the score increases by 1 point per each 1 cm that is damaged.
For all data, descriptive statistics is applied: the arithmetic mean (M) and the standard error of the mean (m) are counted up. The normality of distribution of the values obtained in the course of the experiment was checked with the aid of the Shapiro-Wilk test. […] Distinctions were determined at 5% at a level of confidence.

SMILES: CCCC[N+]1(C)[C@@H]2C[C@@H](OC(=O)[C@H](CO)c3ccccc3)C[C@H]1[C@@H]1O[C@@H]12 (stereo partly shown) [Hyoscine butyl bromide, hyoscin butyl bromide, reference compound]
- The time of ejection of activated carbon (male balb/c mice; 3 mg/kg once intragastrically 1 hour prior to activated carbon): 87.6 ± 4.75 min

SMILES: CCN(CCCCOC(=O)c1ccc(OC)c(OC)c1)C(C)Cc1ccc(OC)cc1 (stereo not shown) [Mebeverine, mebeverine, reference compound]
- The time of ejection of activated carbon (male balb/c mice; 30 mg/kg once intragastrically 1 hour prior to activated carbon): 114.5 ± 12.22 min

SMILES: C[C@]12C=CC(=O)C=C1CC[C@@H]1[C@@H]2[C@@H](O)C[C@@]2(C)[C@H]1CC[C@]2(O)C(=O)CO [Prednisolone, reference compound]
- The degree of colon wall damage (female balb/c mice): 1.40 ± 0.37 points

SMILES: CCC(COC(=O)c1cc(OC)c(OC)c(OC)c1)(c1ccccc1)N(C)C (stereo not shown) [Trimebutine, trimebutine, reference compound]
- The time of ejection of activated carbon (male balb/c mice; 33 mg/kg once intragastrically 1 hour prior to activated carbon): 110.8 ± 6.52 min
